Data taken from PubChem BioAssay AID248 (DTP/NCI, 2004).
Where “and” joins values, the source holds several entries; their conditions need not be identical. Identical values can stand only once. Inconclusive results and toxic doses are left out. Rule as the data show it: active = T/C of 150% or more; inactive = T/C below 125%.

Test system: L1210 leukemia ip in BDF1 mice, survival T/C
Experiment: NCI In Vivo Anticancer Drug Screen. Data for tumor model L1210 Leukemia (intraperitoneal) in B6D2F1 (BDF1) mice
Settings: endpoint: mean survival time, higher = longer survival
Method in brief: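 Ratio derived from survival: compound-dosed mice over vehicle-dosed mice, all bearing a transplantable tumor.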

[1] = dose: 50.0 mg/kg/injection, schedule: Q01DX001 (ip), vehicle: carboxymethylcellulose (CMC)
[2] = dose: 100.0 mg/kg/injection, schedule: Q01DX001 (ip), vehicle: carboxymethylcellulose (CMC)
[3] = dose: 200.0 mg/kg/injection, schedule: Q01DX001 (ip), vehicle: carboxymethylcellulose (CMC)
[4] = dose: 400.0 mg/kg/injection, schedule: Q01DX001 (ip), vehicle: carboxymethylcellulose (CMC)
[5] = dose: 100.0 mg/kg/injection, schedule: Q04DX003 (ip), vehicle: saline with Tween-80
[6] = dose: 100.0 mg/kg/injection, schedule: Q04DX002 (ip), vehicle: saline
[7] = dose: 200.0 mg/kg/injection, schedule: Q04DX002 (ip), vehicle: saline
[8] = dose: 100.0 mg/kg/injection, schedule: Q01DX001 (ip), vehicle: saline
[9] = dose: 200.0 mg/kg/injection, schedule: Q01DX001 (ip), vehicle: saline
[10] = dose: 100.0 mg/kg/injection, schedule: Q01DX009 (ip), vehicle: saline
[11] = dose: 200.0 mg/kg/injection, schedule: Q01DX009 (ip), vehicle: saline
[12] = dose: 200.0 mg/kg/injection, schedule: Q04DX003 (ip), vehicle: saline with Tween-80
[13] = dose: 400.0 mg/kg/injection, schedule: Q04DX003 (ip), vehicle: saline with Tween-80
[14] = dose: 50.0 mg/kg/injection, schedule: Q04DX003 (ip), vehicle: saline

Measured: T/C

CC(=O)c1cc(N)ccc1SC#N
inactive: dose: 5.0 mg/kg/injection, schedule: Q01DX009 (ip), vehicle: saline with Tween-80 102 % of control | dose: 5.0 mg/kg/injection, schedule: Q04DX003 (ip), vehicle: saline with Tween-80 101 % of control | dose: 10.0 mg/kg/injection, schedule: Q01DX009 (ip), vehicle: saline with Tween-80 96 % of control | dose: 10.0 mg/kg/injection, schedule: Q04DX003 (ip), vehicle: saline with Tween-80 101 % of control | dose: 20.0 mg/kg/injection, schedule: Q01DX009 (ip), vehicle: saline with Tween-80 100 % of control | dose: 20.0 mg/kg/injection, schedule: Q04DX003 (ip), vehicle: saline with Tween-80 103 % of control

Cc1ccccc1NP1(=O)OCCCN1Cc1ccccc1Cl (centres undefined)
inactive: [1] 104 % of control | [2] 96 % of control | [3] 98 % of control | [4] 95 % of control

CC(C)(Br)C(=O)c1ccc([N+](=O)[O-])o1
inactive: dose: 12.5 mg/kg/injection, schedule: Q01DX009 (ip), vehicle: saline with Tween-80 97 % of control | dose: 25.0 mg/kg/injection, schedule: Q01DX009 (ip), vehicle: saline with Tween-80 104 % of control | dose: 25.0 mg/kg/injection, schedule: Q04DX003 (ip), vehicle: saline with Tween-80 104 % of control | dose: 50.0 mg/kg/injection, schedule: Q01DX009 (ip), vehicle: saline with Tween-80 95 % of control | dose: 50.0 mg/kg/injection, schedule: Q04DX003 (ip), vehicle: saline with Tween-80 96 % of control | [5] 99 % of control and 89 % of control

CCCC1(CC)C(=O)NC(=S)N(C)C1=O (centres undefined)
inactive: dose: 75.0 mg/kg/injection, schedule: Q01DX001 (ip), vehicle: carboxymethylcellulose (CMC) 95 % of control | dose: 75.0 mg/kg/injection, schedule: Q01DX001 (ip), vehicle: other 94 % of control | dose: 150.0 mg/kg/injection, schedule: Q01DX001 (ip), vehicle: carboxymethylcellulose (CMC) 98 % of control | dose: 150.0 mg/kg/injection, schedule: Q01DX001 (ip), vehicle: other 111 % of control | dose: 300.0 mg/kg/injection, schedule: Q01DX001 (ip), vehicle: carboxymethylcellulose (CMC) 104 % of control

NC(CCl)=NCCC1=NCCN1
inactive: [6] 100 % of control | [7] 106 % of control

c1ccc2c(c1)NC(c1cccc3ccccc13)S2 (centres undefined)
inactive: [8] 94 % of control | [9] 100 % of control | dose: 400.0 mg/kg/injection, schedule: Q01DX001 (ip), vehicle: saline 94 % of control

COc1cc(Cl)ccc1NC(=O)OCc1ccco1
inactive: [10] 111 % of control | [11] 111 % of control | dose: 400.0 mg/kg/injection, schedule: Q01DX009 (ip), vehicle: saline 100 % of control

O=C(NCCCl)Nc1cccc2cccnc12
inactive: dose: 100.0 mg/kg/injection, schedule: Q01DX009 (ip), vehicle: Klucel (hydroxypropylcellulose) (HPC) 100 % of control | dose: 100.0 mg/kg/injection, schedule: Q04DX003 (ip), vehicle: Klucel (hydroxypropylcellulose) (HPC) 100 % of control | dose: 200.0 mg/kg/injection, schedule: Q01DX009 (ip), vehicle: Klucel (hydroxypropylcellulose) (HPC) 98 % of control | dose: 200.0 mg/kg/injection, schedule: Q04DX003 (ip), vehicle: Klucel (hydroxypropylcellulose) (HPC) 102 % of control | dose: 400.0 mg/kg/injection, schedule: Q01DX009 (ip), vehicle: Klucel (hydroxypropylcellulose) (HPC) 98 % of control | dose: 400.0 mg/kg/injection, schedule: Q04DX003 (ip), vehicle: Klucel (hydroxypropylcellulose) (HPC) 94 % of control

NCCCN1CCCN=C1C1=NCCCN1CCCN
inactive: dose: 100.0 mg/kg/injection, schedule: Q01DX009 (ip), vehicle: saline with Tween-80 96 % of control | [6] 100 % of control | [5] 109 % of control | dose: 200.0 mg/kg/injection, schedule: Q01DX009 (ip), vehicle: saline with Tween-80 100 % of control | [7] 100 % of control | [12] 98 % of control | dose: 400.0 mg/kg/injection, schedule: Q01DX009 (ip), vehicle: saline with Tween-80 100 % of control | [13] 95 % of control

CN(C)CCN1C(=O)c2ccccc2N(C)c2ccccc21
inactive: dose: 25.0 mg/kg/injection, schedule: Q04DX003 (ip), vehicle: saline 96 % of control | [14] 96 % of control

Cc1ccc(NC(=O)Oc2ccccc2F)cc1NC(=O)Oc1ccccc1F
inactive: dose: 100.0 mg/kg/injection, schedule: Q01DX009 (ip), vehicle: other 102 % of control | dose: 200.0 mg/kg/injection, schedule: Q01DX009 (ip), vehicle: other 90 % of control | dose: 400.0 mg/kg/injection, schedule: Q01DX009 (ip), vehicle: other 94 % of control

COC1C(OC(=O)/C=C/C=C/C=C/C=C/C(=O)O)CCC2(CO2)C1C1(C)OC1CC=C(C)C (centres undefined)
inactive: dose: 2.5 mg/kg/injection, schedule: Q01DX Z (ip), vehicle: methylcellulose (MC) 115 % of control | dose: 5.0 mg/kg/injection, schedule: Q01DX Z (ip), vehicle: methylcellulose (MC) 110 % of control | dose: 10.0 mg/kg/injection, schedule: Q01DX Z (ip), vehicle: methylcellulose (MC) 115 % of control | dose: 10.0 mg/kg/injection, schedule: Q01DX Z (ip), vehicle: saline 109 % of control | dose: 20.0 mg/kg/injection, schedule: Q01DX Z (ip), vehicle: methylcellulose (MC) 118 % of control | dose: 20.0 mg/kg/injection, schedule: Q01DX Z (ip), vehicle: saline 115 % of control | dose: 40.0 mg/kg/injection, schedule: Q01DX Z (ip), vehicle: methylcellulose (MC) 121 % of control | dose: 40.0 mg/kg/injection, schedule: Q01DX Z (ip), vehicle: saline 123 % of control | dose: 50.0 mg/kg/injection, schedule: Q01DX009 (ip), vehicle: saline 101 % of control | [14] 116 % of control | dose: 80.0 mg/kg/injection, schedule: Q01DX Z (ip), vehicle: saline 120 % of control | [8] 93 % of control | [10] 101 % of control | dose: 100.0 mg/kg/injection, schedule: Q04DX003 (ip), vehicle: saline 93 % of control | [9] 93 % of control | [11] 106 % of control | dose: 200.0 mg/kg/injection, schedule: Q04DX003 (ip), vehicle: saline 98 % of control

CCCCCCCC(=O)Nc1ccc(F)cc1
inactive: dose: 100.0 mg/kg/injection, schedule: Q04DX003 (ip), vehicle: acetone 95 % of control | dose: 200.0 mg/kg/injection, schedule: Q04DX003 (ip), vehicle: acetone 95 % of control | dose: 400.0 mg/kg/injection, schedule: Q04DX003 (ip), vehicle: acetone 90 % of control

CN(C)C(c1ccccc1)C(O)c1ccccc1 (centres undefined)
inactive: dose: 75.0 mg/kg/injection, schedule: Q01DX001 (ip), vehicle: saline 94 % of control and 98 % of control | dose: 150.0 mg/kg/injection, schedule: Q01DX001 (ip), vehicle: saline 97 % of control and 102 % of control | dose: 300.0 mg/kg/injection, schedule: Q01DX001 (ip), vehicle: saline 89 % of control and 96 % of control

O=C(CC(CC(=O)c1ccccc1)c1ccccc1)c1ccccc1
inactive: [1] 91 % of control | [2] 94 % of control | [3] 94 % of control | [4] 94 % of control

CCCNC(=O)Oc1cccc(NC(=O)OC)c1
inactive: [5] 93 % of control | [12] 97 % of control | [13] 103 % of control

O=NN(CCCC(=O)O)C(=O)NCCCC(=O)O
inactive: dose: 25.0 mg/kg/injection, schedule: Q01DX Z (ip), vehicle: carboxymethylcellulose (CMC) 103 % of control | dose: 50.0 mg/kg/injection, schedule: Q01DX Z (ip), vehicle: carboxymethylcellulose (CMC) 90 % of control | dose: 100.0 mg/kg/injection, schedule: Q01DX Z (ip), vehicle: carboxymethylcellulose (CMC) 100 % of control | dose: 200.0 mg/kg/injection, schedule: Q01DX Z (ip), vehicle: carboxymethylcellulose (CMC) 94 % of control | dose: 300.0 mg/kg/injection, schedule: Q01DX Z (ip), vehicle: carboxymethylcellulose (CMC) 95 % of control

CC(=O)N(C)c1cccc(C(=O)O)c1
inactive: [5] 98 % of control | [12] 94 % of control | [13] 98 % of control

CCC(C(=O)NC(=O)NOC)c1ccccc1 (centres undefined)
inactive: dose: 100.0 mg/kg/injection, schedule: Q01DX Z (ip), vehicle: methylcellulose (MC) 95 % of control | dose: 200.0 mg/kg/injection, schedule: Q01DX Z (ip), vehicle: methylcellulose (MC) 114 % of control | dose: 400.0 mg/kg/injection, schedule: Q01DX Z (ip), vehicle: methylcellulose (MC) 116 % of control
